The source of these data is US20210038732A1, “ANTICANCER MICRORNA AND LIPID FORMULATIONS THEREOF” (INTERNA TECHNOLOGIES B.V., priority 2018, published 2021).

The subject of data set [1] is 4T1. The experiment in a line: Cell motility, Boyden chamber assay. Format: cell-based, mouse. The note with it: 10 nM. The method, then: To check the migratory ability of cells, a Boyden Chamber assay was performed, which is based on a chamber of two medium-filled compartments separated by a […] pore size membrane (BD falcon). In this assay, depending on cell type 60,000-120,000 cells were seeded in the upper compartment of the membrane in serum free medium and were allowed to migrate through the pores of the membrane into the lower compartment, in which serum is present in the media. The serum acts as a chemoattractant. After an appropriate incubation time, the membrane between two compartments was fixed, stained and 6 different images from each membrane were taken. The number of migratory cells were counted using Image J analysis.
Different biological effects of miRNA-193a-3p have been tested in various cancer cell lines (see Table 13). For this, various cells were treated with miRNA-193a at different concentrations (1, 3, 10 nM). For all experiments controls (untreated, mock and scrambled) were measured. All assays were performed at 24h, 48h and 72h time points. […] All the results have been quantified and normalized to the mock control.
miRNA-193a treatment in various cancer cell lines decreased cell viability over time as measured by either an MTS assay or by cell count. It enhanced apoptosis induction over time as measured by a caspase 3/7 apoptosis assay. […]

The subject of data set [2] is 4T1. The experiment in a line: Cell viability (MTS assay or cell count). Type of data set: cell-based, mouse. Particulars: 10 nM; TNBC 4T1; normalized to mock. The method, then: Depending on cancer cell type 3000-6000 cells were seeded in a 96 well plate. After cells attached, they were transfected with different concentrations of miRNA-193a and viability was measured at different time points. Viability measurement was performed using CellTiter 96 AQueous One Solution Cell Proliferation Assay (Promega). 20 μL of MTS reagent was added to 100 μL of media in each well in 96-well plate and incubated for 2 hours at 37° C. Absorbance was measured at 490 nm for each sample in 96 well plate reader.
Different biological effects of miRNA-193a-3p have been tested in various cancer cell lines (see Table 13). For this, various cells were treated with miRNA-193a at different concentrations (1, 3, 10 nM). For all experiments controls (untreated, mock and scrambled) were measured. […] Data shown in Table 13 are the results for miRNA-193a at 10 nM concentration at indicated time points. All the results have been quantified and normalized to the mock control.
miRNA-193a treatment in various cancer cell lines decreased cell viability over time as measured by either an MTS assay or by cell count. It enhanced apoptosis induction over time as measured by a caspase 3/7 apoptosis assay. […] It is of note that due to intrinsic characteristics and gene mutation status of each cell line, performing one method to detect apoptosis is not always ideal for all cell lines.
(Tetrazolium dyes change colour on reduction, which living cells bring about.)

Data set [3] concerns A2058 melanoma cells. In words: Malachite Green Phosphate Assay (free phosphate generation). Type of data set: cell-based, human. Particulars: miRNA-193a-3p at 10 nM, vs untreated, mock, scrambled. The method, then:
2000 A2058 melanoma cells were seeded per well in a 96 well plate. 24h after seeding, cells were transfected with different concentrations of miRNA-193a-3p, scrambled control, siNT5E and siPool as control. Malachite Green Phosphate Assay (Sigma Aldrich) was used to measure the liberation of phosphate from nucleoside triphosphates ATP following inhibition of CD39 (ENTPD1) and CD73 (NT5E) as target genes of miRNA-193a-3p 24h and 48h post transfection. The rapid colour formation from the reaction can be conveniently measured on a plate reader (600-660 nm).

The test system of data set [4] is 3′ untranslated regions (UTR) of NT5E (CD73). The experiment in a line: 3′UTR luciferase assay in Hela cells. The note with it: 10 nM. Format: cell-based. The method, then: Firefly luciferase reporter constructs containing the 3′ untranslated regions (UTR) of NT5E (CD73) were transfected in Hela cells along with 10 nM miRNA-193a-3p or a scrambled control. Cell extracts were prepared 24 hours after transfection, and luciferase activity was measured using the Dual Luciferase Reporter Assay System (Promega). If the 3′UTR is a target of the miRNA, miRNA will interact with 3′UTR and provides lower luciferase signal.

In data set [5] the test system is orthotopic human Hep3b hepatocellular carcinoma tumors. The experiment in a line: Orthotopic Hep3b model, miRNAs in NOV340, AFP and tumor weight (Example 4.13). Format: in vivo, mice. Particulars: NOV340 nanoparticles, 6 mg/kg iv QODx9 for 3 weeks; day 39. The method, then:
Six to eight weeks old female SCID/Beige mice (Shanghai Lingchang Bio-Technology Co. Ltd, Shanghai, China) were orthotopically implanted with a single 2×2×2 mm piece of a subq grown Hep3b tumor into the left liver lobe. Mice were randomized based on day 21 AFP levels. At the time of randomization, the AFP levels (ng/ml plasma) ranged between 401 and 40628 ng/ml (median 2536, IQR=1037-5510). Treatments were with sorafenib, with vehicle control, or with various miRNAs (or scrambled miRNA control) encapsulated in NO340 lipid nanoparticles (Simonson and Das, Mini Rev Med Chem, 2015, 15(6): 467-474, PMID: 25807941). Treatments started on day 22 and continued for three weeks (dosing scheme in Table 21). AFP was measured once a week for 4 weeks, and BW was measured twice a week. At the end of the study tumor weights were also determined. QOD×9=one injection every other day for nine times; BID=twice daily; po=per oral.
After terminal sacrifice on day 39, AFP levels and tumor weights were determined.

Data set [6] relates to 4T1 mouse tumor cells. In words: Re-challenge of surviving treated mice with 4T1 cells (Example 4.4). Format: in vivo. The method, then: To investigate the long-term immunity in miRNA-193a treated mice against 4T1 cells, on day 75 after inoculation, mice treated with miRNA-193a and 8 naïve (non-tumor bearing) mice were re-challenged by subcutaneous injection of 3×10^5 4T1 mouse tumor cells in PBS (0.1 mL/mouse) into the right front flank. TV and BW were monitored for 3 weeks. Then, to investigate the immunization status of miRNA-193a treated mice against other cell types, on day 101, mice treated with miRNA-193a and 8 naïve (non-tumor bearing) mice were re-challenged by subcutaneous injection of H22 (mouse liver tumor cells) cells in PBS (0.1 mL/mouse) into the right lower flank.

The test system of data set [7] is twelve syngeneic tumor models. The experiment in a line: Primary tumor growth in a panel of twelve syngeneic tumor models (significance). Format: in vivo, mice. An excerpt: In this study, the effect of miRNA-193a formulated in diamino lipid nanoparticles was investigated on the primary tumor growth in a panel of twelve syngeneic tumor models. Six to eight weeks mice (Shanghai Lingchang Bio-Technology Co. Ltd, Shanghai, China) were subcutaneously injected with an appropriate number of syngeneic cancer cells, depending on the cancer model (see Table 18). At the time of randomization, tumor volume (TV) was approximately 80-120 mm^3. Body weights and TVs (caliper measurements) were determined 2-3 times/week. After randomization (indicated as day 0) mice received PBS or miR-193a (formulated in diamino lipid nanoparticles) treatments as shown in Table 19. Each tumor model had two groups as depicted in Table 19. Mice were scheduled to be euthanized after two weeks of follow up after a maximum of four weeks of treatment.

For “miRNA-193a: duplex of the miRNA-193a-3p of SEQ ID NO: 218 (mimic, sense) with antisense strand SEQ ID NO: 219; naked in vitro, formulated in vivo (sense UGGGACUUUGUAGGCCAGUUTT; antisense AACUGGCCUACAAAGUCCCAGU; chemistry not given here; listed as Homo sapiens)”, the “Motility (18 to 24 h)” value in data set [1] was “↓”. The “Viability (96 h)” value in data set [2] is given as “↓ (Viability > 50%)”. Besides, in data set [3], the Free phosphate generation entry is reported as “reduced the level of free phosphate production”. Moreover, the “Luciferase activity of reporter construct containing mutated form of the CD73 3′UTR” value in data set [4] was “did not affect the luciferase activity”. Further, the “Luciferase activity of reporter construct containing NT5E 3′UTR region” value in data set [4] (vs mock and scrambled controls) was “downregulation of the activity”. Moreover, the “Growth of Hep3b HCC tumors measured by AFP and tumor weight” value in data set [5] is given as “did not inhibit growth”. The “Treated mice that showed tumor take when re-challenged with 4T1 cells” value in data set [6] (re-challenge day 75) turned out to be 3 mice. In data set [6] (re-challenge day 75, 14 days post end of treatment, vs naïve mice), the “Tumor take/growth after re-challenge with 4T1 cells” value was “Pronounced prevention of tumor take/growth”. Further, the “Tumor growth inhibition (TGI), significance” value in data set [7] (CT26, Renca, and Hepa1-6 models) is “did not induce significant TGI”; in data set [7] (H22, Pan02, B16-BL6, RM-1, B16F10, MC38, A20, and EMT-6 models), “significantly induced tumor growth inhibition”.
